IC50 data for 69 molecules are collected here from US10752612B2, “PLK4 inhibitors” (LUDWIG INSTITUTE FOR CANCER RESEARCH LTD, priority 2015, dated 2020).

This test deals with T1, human Plk4 kinase domain (aa 2-275) (Homo sapiens, UniProt O00444).
T1 construct: purified 6×His-tagged human Plk4 kinase domain (aa 2-275); 6xHis; made in house; host or cells: E. coli
T1 sequence (O00444 2-275): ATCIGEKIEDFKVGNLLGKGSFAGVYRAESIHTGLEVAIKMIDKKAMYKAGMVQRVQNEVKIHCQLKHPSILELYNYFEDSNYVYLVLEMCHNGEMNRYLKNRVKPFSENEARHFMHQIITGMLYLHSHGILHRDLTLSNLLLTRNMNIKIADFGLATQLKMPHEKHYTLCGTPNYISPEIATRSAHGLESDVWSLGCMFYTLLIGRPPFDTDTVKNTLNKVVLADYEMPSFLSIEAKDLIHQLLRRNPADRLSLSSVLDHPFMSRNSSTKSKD
Nature of the test: Plk4 kinase assay (ADP-Glo). In kind it is biochemical. The note with it: Table 1. In outline:
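Enzyme at 2.5-10 nM final, pH 8.0, reacted 4-16 hours at 25° C; ADP generation read by ADP-Glo luminescence. Ki derived from IC50 by Cheng-Prusoff or, for tight binders, Copeland formalism.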
On the technique in general: In ADP-Glo the light output rises with the ADP produced.

Usually IC50 stands for the midpoint of a concentration-inhibition curve. A high value points to weaker potency in that assay. `COc1c(Nc2cc(C)[nH]n2)nc(Sc2ccc(S(=O)(=O)C(F)c3c(F)c(F)cc(F)c3F)cc2F)nc1N1CCOCC1` (stereo not drawn): the IC50 was less than 1000 nM. For `COCCN(C)c1nc(Sc2ccc(NC(=O)C3CC3)cc2)nc(Nc2cc(C)[nH]n2)c1C`, the IC50 was less than 1000 nM. Molecule `COc1c(Nc2cc(C)[nH]n2)nc(Sc2ccc(NC(C)=O)cc2)nc1N1CCN(C(C)C)CC1` had an IC50 of less than 1000 nM. For the molecule `COc1c(Nc2cc(C)[nH]n2)nc(Sc2ccc(NC(C)=O)cc2)nc1N1CCC(C(C)=O)CC1`, the IC50 was less than 1000 nM. In turn, `COc1c(Nc2cc(C)[nH]n2)nc(Sc2ccc(S(=O)(=O)Cc3cccc([N+](=O)[O-])c3)cc2)nc1N1CCO[C@@H](C)C1` returned an IC50 of less than 1000 nM.

Turning to `COc1c(Nc2cc(C)[nH]n2)nc(Sc2ccc(S(=O)(=O)Cc3cccc(C#N)c3)cc2)nc1N1CCN(CCN(C)C)CC1`, the IC50 was less than 1000 nM. `COc1c(Nc2cc(C)[nH]n2)nc(Sc2ccc(S(=O)(=O)Cc3cccc(F)c3F)cc2F)nc1N1CCOCC1` gave an IC50 of less than 1000 nM. Molecule `COc1c(Nc2cc(C)[nH]n2)nc(Sc2ccc([N+](=O)[O-])cc2)nc1N1CCN(CCN(C)C)CC1` returned an IC50 of less than 1000 nM. The same measure for `CC(=O)Nc1ccc(Sc2nc(Nc3cc(C)[nH]n3)c(C)c(N3CCNCC3)n2)cc1`: less than 1000 nM; for `COc1c(Nc2cc(C)[nH]n2)nc(Sc2ccc(NC(C)=O)cc2)nc1N1CCCC1`: less than 1000 nM; for `CSc1nc(Nc2cc(C)[nH]n2)c(C)c(N2CCCCC2)n1`: less than 1000 nM. The figure for `CC(=O)Nc1ccc(Sc2nc(Nc3cc(C)[nH]n3)c(C)c(N3CCN(C(C)=O)CC3)n2)cc1` is less than 1000 nM; for `COc1c(Nc2cc(C)[nH]n2)nc(Sc2ccc(S(=O)(=O)C(C)(C)c3cccc([N+](=O)[O-])c3F)cc2F)nc1N1CC[C@H](NC(C)=O)C1` it is less than 1000 nM. Turning to `COc1c(Nc2cc(C)[nH]n2)nc(Sc2ccc(S(=O)(=O)Cc3cccc([N+](=O)[O-])c3)cc2F)nc1N1CCOC[C@@H]1C`, the IC50 was less than 1000 nM. In the case of `CNc1nc(Sc2ccc(NC(=O)C3CC3)cc2)nc(Nc2cc(C)[nH]n2)c1OC`, the IC50 is less than 1000 nM. `COc1c(Nc2cc(C)[nH]n2)nc(Sc2ccc(S(=O)(=O)C(C)(C)c3c(F)c(F)cc(F)c3F)cc2F)nc1N1CCC(OC)CC1` had an IC50 of less than 1000 nM. With `Cc1cc(Nc2nc(Sc3ccc(N)cc3)nc3c2CCC32CCN(CCN(C)C)CC2)n[nH]1`, the IC50 is less than 1000 nM. `Cc1cc(Nc2nc(Sc3ccccc3)nc(N3CCC(O)CC3)c2C)n[nH]1`: the IC50 was less than 1000 nM.

Molecule `COc1c(Nc2cc(C)[nH]n2)nc(Sc2ccc(S(=O)(=O)Cc3cccc(C#N)c3F)cc2F)nc1N1CCOCC1` had an IC50 of less than 1000 nM. The figure for `COc1c(Nc2cc(C)[nH]n2)nc(Sc2ccc(NC(=O)C3CC3)cc2)nc1N(C)C(C)C` is 100 to 1000 nM. As to `COc1c(Nc2cc(C)[nH]n2)nc(Sc2ccc(S(=O)(=O)Cc3ccccc3)cc2)nc1N1CCCCC1`, the IC50 was less than 1000 nM. `COc1c(Nc2cc(C)[nH]n2)nc(Sc2ccc(S(C)(=O)=O)cc2Cl)nc1N1CCC(CCN(C)C)CC1` registered an IC50 of less than 1000 nM. The same measure for `COc1c(C)nc(Sc2ccc(NC(=O)C3CC3)cc2)nc1Nc1cc(C)[nH]n1`: less than 1000 nM. With `Cc1cc(Nc2nc(Sc3ccc(N)cc3)nc(N3CCCCC3)c2C)n[nH]1`, the IC50 is less than 1000 nM. The figure for `CCOc1c(Nc2cc(C)[nH]n2)nc(Sc2ccc(NC(=O)C3CCCC3)cc2)nc1N1CCN(C(=O)CN(C)C)CC1` is 100 to 1000 nM; for `Cc1cc(Nc2nc(Sc3ccc(NC(=O)C4CC4)cc3)nc(-n3ccnc3)c2C)n[nH]1` it is 100 to 1000 nM.

Take `Cc1cc(Nc2nc(Sc3ccc(NC(=O)C4CC4)cc3)nc(Cl)c2C)n[nH]1`: the IC50 is less than 1000 nM. For `COc1c(Nc2cc(C)[nH]n2)nc(Sc2ccc(NC(C)=O)cc2)nc1N1CCN(CCNC(N)=O)CC1`, the IC50 was less than 1000 nM. As for `COc1c(Nc2cc(C)[nH]n2)nc(Sc2ccc(S(=O)(=O)Cc3ccccc3)cc2)nc1N1CC2CCC(C1)O2`, the IC50 is less than 1000 nM.

With `Cc1cc(Nc2nc(Sc3ccc([N+](=O)[O-])cc3)nc3c2CCC32CCN(C(=O)C(C)(C)C)CC2)n[nH]1`, the IC50 is less than 1000 nM. Regarding `COc1c(Nc2cc(C)[nH]n2)nc(Sc2ccc(NC(C)=O)cc2)nc1N1CCCCC1`, the IC50 is less than 1000 nM.

For the molecule `COc1c(Nc2cc(C)[nH]n2)nc(Sc2ccc(NC(=O)Cc3cccc([N+](=O)[O-])c3F)cc2F)nc1N1CCOCC1`, the IC50 was less than 1000 nM.

As for `COc1c(Nc2cc(C)[nH]n2)nc(Sc2ccc(NC(C)=O)cc2)nc1N1CCN(CCS(C)(=O)=O)CC1`, the IC50 is less than 1000 nM. Take `COc1ccc([N+](=O)[O-])cc1CS(=O)(=O)c1ccc(Sc2nc(Nc3cc(C)[nH]n3)c(OC)c(N3CCN(CCN(C)C)CC3)n2)cc1`: the IC50 is less than 1000 nM. The figure for `COc1c(Nc2cc(C)[nH]n2)nc(SC)nc1N1CCN(CCN(C)C)CC1` is 100 to 1000 nM; for `COc1c(Nc2cc(C)[nH]n2)nc(Sc2ccc(S(=O)(=O)C(C)(C)c3c(F)c(F)cc(F)c3F)cc2F)nc1N1CCC(NC(C)=O)CC1` it is less than 1000 nM; for `Cc1cc(Nc2nc(Sc3ccc(NC(=O)C4CC4)cc3)nc(N3CCN(C)CC3)c2CO)n[nH]1` it is 100 to 1000 nM. Take `COc1c(Nc2cc(C)[nH]n2)nc(Sc2ccc([S+](C)[O-])cc2)nc1N1CCN(CCN(C)C)CC1` (stereo not drawn): the IC50 was less than 1000 nM. In turn, `COc1c(Nc2cc(C)[nH]n2)nc(Sc2ccc(S(=O)(=O)C(F)c3cccc([N+](=O)[O-])c3F)cc2F)nc1N1CCC(CCN(C)C)CC1` (stereo not drawn) came in with an IC50 of less than 1000 nM. `COc1c(Nc2cc(C)[nH]n2)nc(Sc2ccc(NC(C)=O)cc2)nc1N1CC(C)N(CCN(C)C)C(C)C1` (stereo not drawn) registered an IC50 of less than 1000 nM.

With `CCOc1c(Nc2cc(C)[nH]n2)nc(Sc2ccc(S(=O)(=O)Cc3ccccc3)cc2)nc1N1CCN(CCN(C)C)CC1`, the IC50 was less than 1000 nM.

As for `COc1c(Nc2cc(C)[nH]n2)nc(Sc2ccc(NC(=O)C3CCCC3)cc2)nc1N1CCOCC1`, the IC50 was less than 1000 nM. The figure for `COc1c(Nc2cc(C)[nH]n2)nc(Sc2ccc(S(C)(=O)=O)cc2)nc1N1CCN(CCN(C)C)CC1` is less than 1000 nM; for `CCN(C)c1nc(Sc2ccc(NC(C)=O)cc2)nc(Nc2cc(C)[nH]n2)c1OC` it is less than 1000 nM; for `COc1c(Nc2cc(C)[nH]n2)nc(Sc2ccc(S(=O)(=O)Cc3cccc(C(F)(F)F)c3F)cc2F)nc1N1CCOCC1` it is less than 1000 nM. `COc1c(Nc2cc(C)[nH]n2)nc(Sc2ccc(NC(C)=O)cc2)nc1N1CCN(CCN2CCCCC2)CC1` had an IC50 of less than 1000 nM. The molecule `COc1c(Nc2cc(C)[nH]n2)nc(Sc2ccc(C(=O)Cc3cccc([N+](=O)[O-])c3F)cc2F)nc1N1CCOCC1` gave an IC50 of less than 1000 nM. Molecule `COc1c(Nc2cc(C)[nH]n2)nc(Sc2ccc(S(=O)(=O)Cc3cccc(C(F)(F)F)c3)cc2)nc1N1CCN(CCN(C)C)CC1` returned an IC50 of less than 1000 nM.

As for `CCS(=O)(=O)c1ccc(Sc2nc(Nc3cc(C)[nH]n3)c(OC)c(N3CCC(CCN4C5CCCC4CCC5)CC3)n2)cc1`, the IC50 is less than 1000 nM.

Regarding `COc1c(Nc2cc(C)[nH]n2)nc(Sc2ccc(S(=O)(=O)Cc3cccc(F)c3F)cc2)nc1N1CCN(CCN(C)C)CC1`, the IC50 was less than 1000 nM.

`COc1c(Nc2cc(C)[nH]n2)nc(Sc2ccc(NC(C)=O)cc2)nc1N1CCN(CCN(C)OC)CC1` registered an IC50 of less than 1000 nM. The molecule `CC(=O)Nc1ccc(Sc2nc(Nc3cc(C)[nH]n3)c(Cl)c(N3CCN(C)CC3)n2)cc1` registered an IC50 of less than 1000 nM. Molecule `CCOc1c(NCCOC)nc(Sc2ccc(NC(=O)C3CC3)cc2)nc1Nc1cc(C)[nH]n1` gave an IC50 of 100 to 1000 nM. Molecule `CC(=O)Nc1ccc(Sc2nc(Nc3cc(C)[nH]n3)c(C)c(N3CCN(C(=O)CN(C)C)CC3)n2)cc1` had an IC50 of less than 1000 nM. The same measure for `CC(=O)Nc1ccc(Sc2nc(Nc3cc(C)[nH]n3)c(C)c(NC3CCNCC3)n2)cc1`: less than 1000 nM; for `CCOc1c(Nc2cc(C)[nH]n2)nc(SC)nc1N1CCN(CCN(C)C)CC1`: 100 to 1000 nM; for `COc1c(Nc2cc(C)[nH]n2)nc(Sc2ccc(NC(C)=O)cc2)nc1N1CCN(C(=O)CN(C)C)CC1`: less than 1000 nM. Turning to `COc1c(Nc2cc(C)[nH]n2)nc(Sc2ccc(NC(C)=O)cc2)nc1N1CCC(C)CC1`, the IC50 was 100 to 1000 nM. The molecule `COc1c(Nc2cc(C)[nH]n2)nc(Sc2ccc(S(C)(=O)=O)cc2F)nc1N1CCN(CCN(C)C)CC1` showed an IC50 of less than 1000 nM.

For the molecule `CNCCN(C)c1nc(Sc2ccc(NC(=O)C3CC3)cc2)nc(Nc2cc(C)[nH]n2)c1C`, the IC50 was less than 1000 nM. The same measure for `COc1c(Nc2cc(C)[nH]n2)nc(Sc2ccc(S(=O)(=O)CCN(C)C)cc2)nc1N1CCN(CCN(C)C)CC1`: less than 1000 nM; for `COCCN1CCN(c2nc(Sc3ccc(NC(=O)C4CCCC4)cc3)nc(Cc3cc(C)[nH]n3)c2C)CC1`: less than 1000 nM; for `COc1c(Nc2cc(C)[nH]n2)nc(Sc2ccc(S(=O)(=O)Cc3ccccc3C(N)=O)cc2)nc1N1CCN(CCN(C)C)CC1`: less than 1000 nM. Molecule `COc1c(Nc2cc(C)[nH]n2)nc(Sc2ccc(S(=O)(=O)C(C)(C)c3c(F)c(F)c(F)c(F)c3F)cc2F)nc1N1CCC(CCN(C)C)CC1` registered an IC50 of less than 1000 nM. The same measure for `COc1c(Nc2cc(C)[nH]n2)nc(Sc2ccc(S(=O)(=O)Cc3cccc([N+](=O)[O-])c3F)cc2)nc1N1CCN(CCN(C)C)CC1`: less than 1000 nM; for `CCSc1c(Nc2cc(C)[nH]n2)nc(Sc2ccc(NC(=O)C3CC3)cc2)nc1N1CCN(C)CC1`: 100 to 1000 nM; for `COc1c(Nc2cc(C)[nH]n2)nc(Sc2ccc(NC(C)=O)cc2)nc1N1CCN(CC(=O)N2CCCCC2)CC1`: less than 1000 nM. The same measure for `CC(=O)Nc1ccc(Sc2nc(Nc3cc(C)[nH]n3)cc(N3CCN(CCN(C)C)CC3C)n2)cc1` (stereo not drawn): less than 1000 nM; for `COc1c(Nc2cc(C)[nH]n2)nc(Sc2ccc(S(=O)(=O)Cc3cc([N+](=O)[O-])ccc3F)cc2)nc1N1CCN(CCN(C)C)CC1`: less than 1000 nM.
